Patent US7316990B2, “High-strength, low viscosity herbicidal formulations of glyphosate” (Dow AgroSciences LLC, priority 2003, dated 2008)

System: Five broadleaf species (IPOHE, CHEAL, EPHHL, ABUTH and CASOB)
Experiment: Greenhouse study of glyphosate salt solutions in mixture with a second herbicide (Colby's equation)
Type: in vivo
Details: for % Actual Control: 420 gae/ha glyphosate and/or 140 gae/ha second herbicide, 3 days after application, averaged over the 5 species; for Herbicide interaction with 2,4-D DMA and triclopyr TEA (actual versus expected control): Colby's equation
Experimental: In a further greenhouse study, the efficacy of a glyphosate DMA salt solution in mixture with DMA 4 (456 g/l 2,4-D acid equivalent in the form of the DMA salt) and Garlon 3A (360 g/l triclopyr acid equivalent in the form of the triethylamine [TEA] salt) respectively was compared with the efficacy of a glyphosate K salt solution in the same mixtures. The glyphosate salt solutions were prepared by diluting the glyphosate DMA salt concentrate and glyphosate K salt concentrate with the required amount of water to prepare solutions containing 480 g/l glyphosate acid equivalent each. Five broadleaf species (IPOHE, CHEAL, EPHHL, ABUTH and CASOB) were sprayed with the individual formulations as well as the mixtures listed in Table 6. The herbicide interactions were analyzed using Colby's equation. This equation for the expected mixture response is: Y1+2=Y1+Y2−(Y1Y2)100 where Y1+2 is the expected mixture response and y1 and y2 are the percent control values of the individual herbicides.

Row | SMILES | % Actual Control [%] | Herbicide interaction with 2,4-D DMA and triclopyr TEA (actual versus expected control)
1 | CNC.O=C(O)COc1ccc(Cl)cc1Cl [2,4-D DMA salt] | 47.0 | 
2 | CNC.O=C(O)CNCP(=O)(O)O [glyphosate DMA salt] | 35.7 | no antagonism
3 | O=C(O)CNCP(=O)([O-])O.[K+] [glyphosate K salt] | 35.7 | antagonistic
4 | CCN(CC)CC.O=C(O)COc1nc(Cl)c(Cl)cc1Cl [triclopyr TEA salt] | 55.0 | 
